Patent publication US6780418B1, “Reagents and immunoassay for the detection and quantitative determination of mycothiol and precursors thereof” (The Regents of the University of California, priority 1997, dated 2004)

What was measured:
[1] = test system: anti-mycothiol antibody; assay: ELISA of Example 4: thiol bound to maleimide-activated BSA, detected with affinity-purified anti-MSH antibody; type: binding, rabbit; conditions: for ELISA result (recognition by the anti-mycothiol antibody): thiol at the 10 pmol level
Procedure: Known amounts of pure MSH (typically from 0 to 1 pmol/well) were reacted with maleimide-activated BSA (Pierce); maleimide activation levels were 16-19 mol maleimide per mol BSA. The maleimide-activated BSA was reconstituted to 10 mg/ml and this stock solution stored at −70° C. until needed. The stock solution was diluted to a working concentration of 5 ng/μl just before use and kept chilled on ice. MSH from the concentrated stock solution in 0.1% TFA was diluted into TBS (Tris-buffered saline: 0.1 M Tris, pH 7.3, 0.15 M NaCl, 0.04% NaN3) on ice and the diluted samples (40 μl per well) immediately added to the maleimide-activated BSA (60 μl per well). A “zero” standard consisted of TBS in place of an MSH solution. In practice, 168 μl of thiol standard were added to 252 μl of maleimide-activated BSA solution. Samples of unknown thiol content were reacted with maleimide-activated BSA in the same manner, providing a small excess volume for pipetting of quadruplicate samples of 100 μl per well. After 2-hour incubation at room temperature, the thiol-BSA samples were aliquoted (100 μl per well) into Immulon-4 microplate wells and allowed to bind overnight at 4° C. Unbound protein was removed by gentle aspiration with mild vacuum and the wells blocked for 2 hours at room temperature with 1% v/v fish-skin gelatin in TBS. The wells were drained, washed once with TBST (TBS plus 0.05% Tween-20), and drained. Washes involved filling wells to the top with wash buffer followed by gentle aspiration to drain the wells. Primary antibody (affinity-purified anti-MSH, 100 μl per well) was added and the plate incubated for 4 hours at room temperature. The wells were drained, washed twice with TBST, and drained. Secondary antibody (goat anti-rabbit [whole IgG] F(ab′)2 fragments conjugated to bovine intestinal alkaline phosphatase, 100 μl per well) was added and the plate incubated for 1 hour at room temperature. The wells were drained, washed twice with TBST, twice with TBS, and drained. The alkaline phosphatase substrate (3.8 mM p-nitrophenylphosphate in 0.2 M Tris, pH 9.8, 200 μl per well) was added and the plate incubated 30 minutes at room temperature. The reaction was quenched by addition of 50 μl per well stop solution (4 N NaOH). The plate was read at 405 nm on a microplate reader (Model EL311, Bio-Tek Instruments) that was programmed to automatically subtract blank values read from wells that received only the blocking agent, wash solutions, p-nitrophenyl phosphate, and stop solution.
Since reaction of typical cellular constituents with maleimide-BSA is largely limited to thiols, it was considered important to ascertain whether any typical biological thiols would produce false-positive assay results.
In order to test whether the anti-mycothiol antibody recognizes component parts of the mycothiol molecule we also tested the ELISA on N-acetyl-L-cysteine, L-cysteinyl-glucosamine, (2-L-cysteinyl)amido-2-deoxy-α-D-glucopyranose), and N-acetyl-L-cysteinyl-glucosamine (2-N-acetyl-L-cysteinyl)amido-2-deoxy-α-D-glucopyranose).

[2] = test system: M. smegmatis mc^2155; assay: Effect of nutrient supplementation upon mycothiol intermediate levels and growth; type: cell-based, Mycobacterium smegmatis
Procedure: To test whether an increase in cellular Ins content would influence the levels of MSH or potential MSH intermediates, we examined M. smegmatis mc^2155 incubated with Ins. We initially tested Ins uptake by adding 37 μM ^14C-inositol to a culture at A600=1.0 and determining the loss of radiolabel from the medium and its appearance in cells. After 2.5 h, 77% of the counts had been lost from the medium to the cells, showing that M. smegmatis efficiently imports inositol. Next we harvested cells after growth to mid log phase, resuspended them at A600=1.05 in Middlebrook 7H9 media with glucose and 1 MM Ins at 37° C., and took samples for analysis at 0, 0.5 and 2.5 h (FIG. 17A).
To test whether changes in cellular Cys levels would influence MSH or MSH intermediates, we incubated cells in medium containing 10 mM AcCys. Since AcCys is readily taken up by passive diffusion we expected this to produce markedly elevated levels of cellular AcCys and, through deacylation, Cys. […] The Cys-GlcN-Ins content was elevated 20-fold over normal immediately after the start of incubation but then fell a factor of 70 over the next 2.5 h. Least affected was the MSH content which was elevated ˜40% after 2.5 h.

[3] = molecular target: ATP-dependent ligase activity (Mycolicibacterium smegmatis, UniProt A0QZY0); assay: Assay of ATP-dependent ligase activity with GlcN-Ins plus Cys/AcCys in cell extract supernatant; type: biochemical, M. smegmatis; conditions: for MSH content / Cys-GlcN-Ins concentration: 100 μM substrate, 50 μM GlcN-Ins, 1 mM ATP; for Cys-GlcN-Ins concentration: pH 7.5, 60 min
ATP-dependent ligase activity, sequence (A0QZY0 whole entry): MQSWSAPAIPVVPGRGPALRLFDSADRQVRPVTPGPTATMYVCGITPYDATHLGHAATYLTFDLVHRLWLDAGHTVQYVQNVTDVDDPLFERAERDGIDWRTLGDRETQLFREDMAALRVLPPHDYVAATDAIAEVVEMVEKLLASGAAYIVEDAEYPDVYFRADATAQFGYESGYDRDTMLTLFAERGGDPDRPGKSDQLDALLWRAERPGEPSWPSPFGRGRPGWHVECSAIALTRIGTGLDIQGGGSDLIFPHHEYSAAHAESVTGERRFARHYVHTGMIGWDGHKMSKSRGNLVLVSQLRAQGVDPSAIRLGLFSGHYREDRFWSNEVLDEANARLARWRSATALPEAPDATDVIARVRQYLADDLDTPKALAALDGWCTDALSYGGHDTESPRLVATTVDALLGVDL

[4] = type: physicochemical
Procedure: The crude extract was purified by reversed-phase HPLC on a preparative C 18 column, 25 mm×250 mm (Vydac) by isocratic elution with 0.1% trifluoracetic acid (TFA) in ultrapure water at a flow rate of 10 ml/min. Under these conditions MSH eluted as the free thiol at 8 minutes and as its disulfide (MSSM) at 12 minutes. Thiol concentration was determined by titration with DTNB. Purified MSH was stored as a concentrated (0.11 M) stock solution in 0.1% TFA (aqueous), frozen at −70° C.
To produce biotinylated MSH suitable for use as a standard, the following procedure was carried out: 5.0 μL of 3.7 mM pure MSH in 0.1% TFA was added to 12.3 μL 1.5 mM MPB in DMSO/acetonitrile/100 mM phosphate buffer, pH 7.0 (1:4:5). The mixture was allowed to react 1 hour at room temperature. To determine the extent of biotinylation, unreacted MSH was measured by titration with DTNB. The standard was stored in 1.0 μL aliquots frozen at −70° C. For use in ELISA analyses, the standard was diluted to a concentration of 1.0 μM in Tris-buffered saline, pH 7.3, containing 0.04% w/v sodium azide, 0.05% v/v Tween 20 and 0.1% w/v BSA (TBSTB); this solution was stable for several (>6) months when stored refrigerated as indicated by consistency of ELISA measurements.

CC(=O)N[C@@H](CS)C(=O)O [AcCys, N-acetyl-cysteine]
ELISA result (recognition by the anti-mycothiol antibody) [1]: negative | effect on growth ([2]; 10 mM AcCys, 2.5 h): significantly inhibits growth | MSH content elevated ([2]; 10 mM AcCys, after 2.5 h): ~40% | Cys-GlcN-Ins content elevated over normal ([2]; 10 mM AcCys, immediately after the start of incubation): 20 fold | change of A600 value ([2]; 10 mM AcCys, over the 2.5 h incubation period): 5% | fall of Cys-GlcN-Ins content (factor) ([2]; 10 mM AcCys, over the next 2.5 h): 70 | Cys level increased ([2]; medium containing 10 mM AcCys): 50 fold | H2S level ([2]; medium containing 10 mM AcCys): roughly doubled | cellular AcCys level elevated over the normal level ([2]; medium containing 10 mM AcCys): 1000 fold | decrease in GlcN-Ins content ([2]; medium containing 10 mM AcCys): 5- to 10 fold | [Cys]/[AcCys] ([3]; 100 μM AcCys, by 60 min): ~3 | MSH content ([3]; 60 min): 15 µM | Cys-GlcN-Ins concentration [3]: 20 µM

CC(=O)N[C@@H](CS)C(=O)N[C@@H]1[C@@H](O)[C@H](O)[C@@H](CO)O[C@@H]1O [AcCys-GlcN, 2-(N-acetyl-L-cysteinyl)amido-2-deoxy-α-d-glucopyranoside]
sensitivity of the assay relative to that for MSH ([1]; of that for MSH): about 4% | ELISA result (recognition by the anti-mycothiol antibody) [1]: positive

N[C@@H](CS)C(=O)O [Cys, L-cysteine]
ELISA result (recognition by the anti-mycothiol antibody) [1]: negative | MSH content ([3]; 0 min): 15 µM | MSH content ([3]; 60 min): 13 µM | Cys-GlcN-Ins concentration [3]: 26 µM

N[C@@H](CS)C(=O)N[C@@H]1[C@@H](O)[C@H](O)[C@@H](CO)O[C@@H]1O [Cys-GlcN, 2-(L-cysteinyl)amido-2-deoxy-α-D-glucopyranoside]
ELISA result (recognition by the anti-mycothiol antibody) [1]: negative

O[C@H]1[C@H](O)[C@@H](O)[C@H](O)[C@@H](O)[C@H]1O [Ins, myo-inositol]
MSH and H2S levels ([2]; 1 mM Ins, 37° C., 0 to 2.5 h): did not change to a significant extent | GlcN-Ins content relative to normal ([2]; 1 mM Ins, 37° C., at 0.5 h): about half normal | GlcN-Ins content relative to normal ([2]; 1 mM Ins, 37° C., at 2.5 h): returning to normal | GlcN-Ins content relative to normal ([2]; 1 mM Ins, 37° C., initially (0 h)): more than 3 fold | increase of A600 value ([2]; 1 mM Ins, over the 2.5 h incubation): 40%

CC(=O)N[C@@H](CS)C(=O)N[C@H]1[C@@H](OC2[C@H](O)[C@H](O)C(O)[C@H](O)[C@H]2O)O[C@H](CO)[C@@H](O)[C@@H]1O (stereo partly drawn) [MSH, 1-D-myo-inosityl-2-(N-acetyl-L-cysteinyl)amido-2-deoxy-α-D-glucopyranoside]
stability on storage [4]: stable as the free thiol for many months

CC(C)(COP(=O)(O)OP(=O)(O)OC[C@H]1O[C@@H](n2cnc3c(N)ncnc32)[C@H](O)[C@@H]1OP(=O)(O)O)[C@@H](O)C(=O)NCCC(=O)NCCS [coenzyme A, reference compound]
ELISA result (recognition by the anti-mycothiol antibody) [1]: negative

N[C@@H](CCC(=O)N[C@@H](CS)C(=O)NCC(=O)O)C(=O)O [glutathione, reference compound]
ELISA result (recognition by the anti-mycothiol antibody) [1]: negative

CC(C)(CO)[C@@H](O)C(=O)NCCC(=O)NCCS [pantetheine, reference compound]
ELISA result (recognition by the anti-mycothiol antibody) [1]: negative

^14C-inositol [reference compound]
counts lost from the medium to the cells (uptake) ([2]; 37 μM, culture at A600=1.0, after 2.5 h): 77%
